The results in this text go back to paper PMC4013123 (PLoS ONE, 2014).

Assay [1] concerns the target WT MPH (methyl parathion hydrolase) (Ochrobactrum sp. M231, UniProt B2Z3X1). An excerpt:
steady-state kinetics of purified enzyme (standard assay by reference) on WT MPH (methyl parathion hydrolase)

For assay [2], the target named is D10-MPH (Ochrobactrum sp. M231, UniProt B2Z3X1). The text has this:
steady-state kinetics of purified enzyme (standard assay by reference) on D10-MPH

By Km is commonly meant the substrate concentration at which the rate is half of its maximum.

WT MPH (methyl parathion hydrolase), sequence (B2Z3X1 entry or part of it): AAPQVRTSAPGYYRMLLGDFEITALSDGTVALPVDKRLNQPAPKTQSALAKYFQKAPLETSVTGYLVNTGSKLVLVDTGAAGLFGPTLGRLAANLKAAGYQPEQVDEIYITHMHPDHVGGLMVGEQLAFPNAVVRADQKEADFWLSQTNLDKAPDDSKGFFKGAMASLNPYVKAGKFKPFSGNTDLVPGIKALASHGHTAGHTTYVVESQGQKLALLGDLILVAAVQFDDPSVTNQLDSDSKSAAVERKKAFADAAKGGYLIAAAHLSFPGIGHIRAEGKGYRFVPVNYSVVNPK
D10-MPH, sequence (B2Z3X1 entry or part of it): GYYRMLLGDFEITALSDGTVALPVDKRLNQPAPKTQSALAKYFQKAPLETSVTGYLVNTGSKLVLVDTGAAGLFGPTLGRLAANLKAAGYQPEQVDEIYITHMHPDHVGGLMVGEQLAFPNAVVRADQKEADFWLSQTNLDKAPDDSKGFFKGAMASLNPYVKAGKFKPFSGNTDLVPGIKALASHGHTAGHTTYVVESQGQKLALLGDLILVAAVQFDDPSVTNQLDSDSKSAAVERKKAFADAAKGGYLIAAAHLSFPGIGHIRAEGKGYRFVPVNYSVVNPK

Turning to `COP(=S)(OC)Oc1ccc([N+](=O)[O-])cc1` [methyl parathion], the Km in assay [1] amounted to 73.2 ± 4.7 µM; in assay [2] it was 86.9 ± 4.01 µM.
